Data as given in ChEMBL document CHEMBL3817817, “The design strategy of selective PTP1B inhibitors over TCPTP” (Bioorg Med Chem, 2016).

Key:
[1] = molecular target: T1, Tyrosine-protein phosphatase non-receptor type 2 (Homo sapiens, UniProt P17706); test: Inhibition of human recombinant TCPTP (1 to 341 residues) expressed in Escherichia coli using p-nitrophenyl phosphate as substrate by UV spectroscopy
T1 sequence (P17706 whole entry): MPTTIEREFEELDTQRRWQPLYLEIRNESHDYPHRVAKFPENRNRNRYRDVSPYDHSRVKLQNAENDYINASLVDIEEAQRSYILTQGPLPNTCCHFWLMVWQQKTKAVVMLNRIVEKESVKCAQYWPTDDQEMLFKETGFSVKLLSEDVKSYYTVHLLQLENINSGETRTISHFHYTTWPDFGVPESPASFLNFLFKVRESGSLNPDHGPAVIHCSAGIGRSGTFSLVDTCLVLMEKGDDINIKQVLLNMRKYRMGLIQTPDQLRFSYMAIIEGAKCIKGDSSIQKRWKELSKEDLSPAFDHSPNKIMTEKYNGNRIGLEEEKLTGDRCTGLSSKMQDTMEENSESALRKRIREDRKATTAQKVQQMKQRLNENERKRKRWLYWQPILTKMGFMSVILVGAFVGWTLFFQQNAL

[2] = molecular target: T2, Tyrosine-protein phosphatase non-receptor type 1 (Homo sapiens, UniProt P18031); test: Inhibition of human recombinant PTP1B expressed in Escherichia coli using p-nitrophenyl phosphate as substrate by UV spectroscopy
T2 sequence (P18031 whole entry): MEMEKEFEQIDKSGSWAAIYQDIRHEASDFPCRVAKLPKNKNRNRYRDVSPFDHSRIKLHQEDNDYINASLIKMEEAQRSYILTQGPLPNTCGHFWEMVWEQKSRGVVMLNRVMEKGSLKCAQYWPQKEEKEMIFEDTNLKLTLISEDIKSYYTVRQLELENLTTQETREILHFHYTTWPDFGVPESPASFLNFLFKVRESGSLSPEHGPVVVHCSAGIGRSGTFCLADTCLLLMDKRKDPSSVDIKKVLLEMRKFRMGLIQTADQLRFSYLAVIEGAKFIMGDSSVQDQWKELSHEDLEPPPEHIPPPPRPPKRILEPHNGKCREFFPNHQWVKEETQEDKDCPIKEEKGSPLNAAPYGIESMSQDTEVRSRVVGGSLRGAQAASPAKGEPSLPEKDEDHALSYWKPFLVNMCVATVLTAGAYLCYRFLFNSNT

Homo sapiens [3] = species: Homo sapiens; test: Selectivity ratio of IC50 for human recombinant TCPTP (1 to 341 residues) to IC50 for human recombinant PTP1B
[4] = molecular target: T2, Tyrosine-protein phosphatase non-receptor type 1; test: Inhibition of human recombinant PTP1B catalytic domain using p-nitrophenyl phosphate as substrate by micro plate reader method
Homo sapiens [5] = species: Homo sapiens; test: Selectivity ratio of IC50 for human TCPTP to IC50 for human recombinant PTP1B
[6] = molecular target: T1, Tyrosine-protein phosphatase non-receptor type 2; test: Inhibition of human TCPTP using p-nitrophenyl phosphate as substrate by micro plate reader method
[7] = molecular target: T2, Tyrosine-protein phosphatase non-receptor type 1; test: Inhibition of PTP1B (unknown origin)
[8] = molecular target: T1, Tyrosine-protein phosphatase non-receptor type 2; test: Inhibition of TCPTP (unknown origin)
Homo sapiens [9] = species: Homo sapiens; test: Selectivity ratio of IC50 for human GST-tagged TCPTP to IC50 for human recombinant PTP1B catalytic domain
[10] = molecular target: T2, Tyrosine-protein phosphatase non-receptor type 1; test: Inhibition of human recombinant PTP1B catalytic domain expressed in Escherichia coli BL21 (DE3) cells using p-Nitrophenyl phosphate as substrate by microplate reader method
[11] = molecular target: T1, Tyrosine-protein phosphatase non-receptor type 2; test: Inhibition of human GST-tagged TCPTP expressed in Escherichia coli BL21 (DE3) cells using p-Nitrophenyl phosphate as substrate by microplate reader method
Homo sapiens [12] = species: Homo sapiens; test: Selectivity ratio of IC50 for TCPTP (unknown origin) to IC50 for human PTP1B (1 to 288 residues)
[13] = molecular target: T2, Tyrosine-protein phosphatase non-receptor type 1; test: Inhibition of human PTP1B (1 to 288 residues) expressed in Escherichia coli BL21 (DE3) cells using p-nitrophenyl phosphate as substrate monitered every 30 secs for 15 mins by micro plate reader method
[14] = molecular target: T1, Tyrosine-protein phosphatase non-receptor type 2; test: Inhibition of human TCPTP (1 to 296 residues) catalytic domain expressed in Escherichia coli BL21 cells using fluorescein diphosphate as substrate by microplate reader method
[15] = molecular target: T1, Tyrosine-protein phosphatase non-receptor type 2; test: Inhibition of TCPTP (unknown origin) using p-nitrophenyl phosphate as substrate by colorimetric method
Homo sapiens [16] = species: Homo sapiens; test: Selectivity ratio of Ki for TCPTP (unknown origin) to Ki for human PTP1B (1 to 288 residues)
[17] = molecular target: T2, Tyrosine-protein phosphatase non-receptor type 1; test: Inhibition of human PTP1B (1 to 288 residues) expressed in Escherichia coli BL21 (DE3) cells using p-nitrophenyl phosphate as substrate by colorimetric method
[18] = molecular target: T2, Tyrosine-protein phosphatase non-receptor type 1; test: Inhibition of PTP1B catalytic domain (1 to 321 residues) (unknown origin) expressed in Escherichia coli BL21 (DE3) cells using p-Nitrophenyl phosphate as substrate
Homo sapiens [19] = species: Homo sapiens; test: Selectivity ratio of Ki for TCPTP (unknown origin) to Ki for PTP1B catalytic domain (1 to 321 residues) (unknown origin)
[20] = molecular target: T1, Tyrosine-protein phosphatase non-receptor type 2; test: Inhibition of recombinant TCPTP (unknown origin) at pH 7

O=C(O)C(=O)c1ccc(OCc2ccc(COc3ccc(C(=O)C(=O)O)cc3)c(C(=O)Nc3ccc(Oc4ccccc4)cc3)c2)cc1
IC50 [1]: 2.4 µM
IC50 [2]: 1.5 µM
Ratio IC50 (Homo sapiens [3]): 1.6

CO[C@H]1O[C@H](COCc2ccccc2)[C@@H](OCc2ccccc2)[C@H](OCc2cn(CCCOc3ccc(O)c(C(=O)O)c3)nn2)[C@H]1OCc1cn(CCCOc2ccc(O)c(C(=O)O)c2)nn1
IC50 [4]: 7.7 µM
Ratio IC50 (Homo sapiens [5]): 7.05
IC50 [6]: 54.3 µM

COC(=O)c1c(O)cccc1OC/C=C/c1cccc(-c2onc(C(=O)O)c2CO)c1
IC50 [7]: 0.92 µM
IC50 [8]: 19.2 µM

COC(=O)[C@H](Cc1ccc(O)cc1)n1cc(CO[C@H]2[C@@H](OCc3ccccc3)[C@@H](OC)O[C@H](COCc3ccccc3)[C@H]2OCc2cn([C@@H](Cc3ccc(O)cc3)C(=O)OC)nn2)nn1
Ratio IC50 (Homo sapiens [9]): 6.2
IC50 [10]: 9.6 µM
IC50 [11]: 59.6 µM

COC(=O)c1c(O)cccc1OC/C=C/c1ccc(F)c(-c2cc(C(=O)O)no2)c1
Ratio IC50 (Homo sapiens [12]): 23.8
IC50 [13]: 6.9 µM
IC50 [8]: 164 µM

COC(=O)c1ccc(C(C/C=C/c2ccccc2)(Cc2ccc(C(F)(F)P(=O)(O)O)cc2)n2nnc3ccccc32)cc1 (stereo unspecified)
IC50 [14]: 0.087 µM

CCCCCNC(=O)[C@H](Cc1ccc(C(=O)C(=O)Nc2ccccc2C(=O)O)c(/C=C/C(N)=O)c1)NS(C)(=O)=O
Ki [15]: 0.16 µM
Ratio Ki (Homo sapiens [16]): 0.94
Ki [17]: 0.17 µM

CC(=O)N[C@H](Cc1ccc(N(C(=O)C(=O)O)c2ccccc2C(=O)O)c2ccccc12)C(=O)NCCCCCOc1cc2ccccc2cc1C(=O)O
IC50 [8]: 0.049 µM

CO[C@H]1O[C@H](Cn2cc(NC(=O)c3cccc(C(=O)Nc4cn(C[C@H]5O[C@H](OC)[C@H](OCc6ccccc6)[C@H](OCc6ccccc6)[C@@H]5OCc5ccccc5)nn4)c3)nn2)[C@@H](OCc2ccccc2)[C@@H](OCc2ccccc2)[C@H]1OCc1ccccc1
IC50 [4]: 1.5 µM
Ratio IC50 (Homo sapiens [5]): 10.3
IC50 [6]: 15.5 µM

NC(=O)[C@H](Cc1ccc(C(F)(F)P(=O)(O)O)cc1)NC(=O)[C@H](Cc1ccc(O)cc1)NC(=O)Cc1ccc(C(F)(F)P(=O)(O)O)cc1
Ki [18]: 0.0049 µM
Ratio Ki (Homo sapiens [19]): 4.08
Ki [8]: 0.02 µM

O=C(O)C(=O)Nc1sc2c(c1C(=O)O)CCN(CCc1ccccc1)C2
Ki [20]: 7.2 µM
